≈ marks a conversion by molar mass, not a printed value. Read-outs that look alike come from different tables or passages of the source.
How the values were obtained:
Water solubility = assay type: physicochemical; conditions: in words
C. albicans = experiment: In vitro antifungal susceptibility CLSI M27-A2 (MIC, MFC); assay type: cell-based; conditions: C. albicans (10)
C. parapsilosis = experiment: as above; assay type: cell-based; conditions: C. parapsilosis (10)
C. tropicalis = experiment: as above; assay type: cell-based; conditions: C. tropicalis (10)
C. krusei = experiment: as above; assay type: cell-based; conditions: C. krusei (10)
C. guilliermondii = experiment: as above; assay type: cell-based; conditions: C. guilliermondii (2)
C. dubliniensis = experiment: In vitro antifungal susceptibility CLSI M27-A2 (MIC); assay type: cell-based; conditions: C. dubliniensis (5)
Procedure: (§1) In addition, MFC ([…]) was done for each species. The geometric mean (GM) was calculated for each isolate using all three results. All testing was performed in triplicate to verify the reproducibility of the data.
Eighty-three Candida strains were evaluated. This included 12 different Candida species, which are the species that are most commonly involved in the majority of candidal infections in humans. The species include ten isolates of C. albicans, C. glabrata, C. parapsilosis, C. tropicalis, C. krusei, C. lusitaniae, and C. kefyr, along with five isolates of C. dubliniensis, and two isolates each of C. guilliermondii and C. rugosa. In addition, there was also one isolate each of C. sake, C. lipolytica, C. sphaerica and C. norvegica.

A. flavus = experiment: In vitro antifungal susceptibility CLSI M38-A (MIC); assay type: cell-based; conditions: 5 isolates
Procedure: as §1
(§2) A total of 31 isolates of Aspergillus were evaluated. This included six different species of Aspergillus which included six strains of A. fumigatus, and 5 strains of A. flavus, A. terreus, A. niger and A. glaucus.

A. fumigatus = experiment: as above; assay type: cell-based; conditions: A. fumigates, 6 isolates
Procedure: as §1, §2

A. glaucus = experiment: as above; assay type: cell-based; conditions: 5 isolates
Procedure: as §1, §2

A. niger = experiment: as above; assay type: cell-based; conditions: 5 isolates
Procedure: as §1, §2

A. terreus = experiment: as above; assay type: cell-based; conditions: 5 isolates
Procedure: as §1, §2

A. versicolor = experiment: as above; assay type: cell-based; conditions: 5 isolates
Procedure: as §1, §2

E. jeanselmei = experiment: as above; assay type: cell-based, Exophilia jeanselmei; conditions: 3 isolates
Procedure: as §1
Several of the more common molds were also tested and evaluated including five strains of Alternaria, Cladosporium, Scopulariopsis, Acremonium, and Paecilomyces. Also evaluated were some of the more uncommon fungi such as Exophilia jeanselmei (3), Emmonsia parvum (Chrysporium parvum) (2) and Epioccum spp. (2). Conventional ATCC strains of different Candida and Aspergillus species were used as controls.

Coccidioides sp = assay type: cell-based
Blastomyces dermatitidis = experiment: Broth macrodilution MIC/MFC against endemic fungal pathogens; assay type: cell-based; conditions: for MFC: >96% kill of the inoculum
Histoplasma capsulatum = assay type: cell-based; conditions: 4 of the H isolates
Naegleria fowleri = experiment: Primary amoebic meningoencephalitis in mice; assay type: in vivo, Balb/c mice; conditions: 9 mg/kg/day for a total of 10 days
[1] = background statement; cited from earlier work
[2] = test system: Candida albicans (ATCC 44858); conditions: 3 mg/kg PO; 15-day observation
[3] = human, in vivo; cited from earlier work
[4] = 28-day toxicology in rats (clinical chemistry, NOAEL)
[5] = Blastomyces dermatitidis isolate 1
[6] = Blastomyces dermatitidis isolate 2
[7] = rat sera, amphotericin B 0.5 mg, intravenously three days a week
[8] = rat sera, amphotericin B 1.0 mg, intravenously three days a week
[9] = rat sera, amphotericin B 1.5 mg, intravenously three days a week

In the case of C[C@@H]1[C@H](O)[C@@H](C)/C=C/C=C/C=C/C=C/C=C/C=C/C=C/[C@H](O[C@@H]2O[C@H](C)[C@@H](O)[C@H](N)[C@@H]2O)C[C@@H]2O[C@](O)(C[C@@H](O)C[C@@H](O)[C@H](O)CC[C@@H](O)C[C@@H](O)CC(=O)O[C@H]1C)C[C@H](O)[C@H]2C(=O)O [Amphotericin B, amphotericin B], the Water solubility (Water solubility) is reported as “insoluble”, the “GM (geometric mean MIC)” value (C. albicans) is reported as 0.612 µg/mL and the MFC (C. albicans) is reported as 1 µg/mL (≈ 1.08 µM). For the same compound, the MIC50 (C. albicans) was 0.5 µg/mL (≈ 0.541 µM), the MIC90 (C. albicans) was 1 µg/mL (≈ 1.08 µM) and the “MIC Range” value (C. albicans) was 0.12 to 1 µg/mL. The “GM (geometric mean MIC)” value (C. parapsilosis) was 0.7 µg/mL, the MFC (C. parapsilosis) was 2 µg/mL (≈ 2.16 µM) and the MIC50 (C. parapsilosis) was 0.5 µg/mL (≈ 0.541 µM). The MIC90 (C. parapsilosis) was 1 µg/mL (≈ 1.08 µM), the “MIC Range” value (C. parapsilosis) was 0.5 to 1.0 µg/mL and the “GM (geometric mean MIC)” value (C. tropicalis) was 0.95 µg/mL. The MFC (C. tropicalis) was 2 µg/mL (≈ 2.16 µM), the MIC50 (C. tropicalis) was 1 µg/mL (≈ 1.08 µM) and the MIC90 (C. tropicalis) was 1 µg/mL (≈ 1.08 µM). For the same compound, the “MIC Range” value (C. tropicalis) was 0.5 to 1.0 µg/mL, the “GM (geometric mean MIC)” value (C. krusei) was 1.29 µg/mL and the MFC (C. krusei) was 2 µg/mL (≈ 2.16 µM). For the same compound, the MIC50 (C. krusei) was 1 µg/mL (≈ 1.08 µM), the MIC90 (C. krusei) was 2 µg/mL (≈ 2.16 µM) and the “MIC Range” value (C. krusei) was 0.5 to 2.0 µg/mL. The MIC50 (C. krusei; listed as amphotericin B) was 1.0 µg/mL (≈ 1.08 µM), the “GM (geometric mean MIC)” value (C. guilliermondii) was 0.5 µg/mL and the MFC (C. guilliermondii) was 1 µg/mL (≈ 1.08 µM). For the same compound, the “MIC Range” value (C. guilliermondii) was 0.5 µg/mL (≈ 0.541 µM), the “GM (geometric mean MIC)” value (C. dubliniensis) was 0.4 µg/mL and the MIC50 (C. dubliniensis) was 0.5 µg/mL (≈ 0.541 µM). For the same compound, the MIC90 (C. dubliniensis) was 1 µg/mL (≈ 1.08 µM), the “MIC Range” value (C. dubliniensis) was 0.125 to 1 µg/mL and the GM (A. flavus) was 4.8 µg/mL. The MIC50 (A. flavus) was 2 µg/mL (≈ 2.16 µM), the “MIC Range” value (A. flavus) was 2 to 16 µg/mL and the GM (A. fumigatus) was 1.58 µg/mL. The MIC50 (A. fumigatus) was 2 µg/mL (≈ 2.16 µM), the “MIC Range” value (A. fumigatus) was 0.5 to 2 µg/mL and the GM (A. glaucus) was 0.7 µg/mL. For the same compound, the MIC50 (A. glaucus) was 0.5 µg/mL (≈ 0.541 µM), the “MIC Range” value (A. glaucus) was 0.25 to 1 µg/mL and the GM (A. niger) was 0.8 µg/mL. The MIC50 (A. niger) was 1 µg/mL (≈ 1.08 µM), the “MIC Range” value (A. niger) was 0.5 to 1 µg/mL and the GM (A. terreus) was 2.0 µg/mL. The MIC50 (A. terreus) was 2 µg/mL (≈ 2.16 µM), the “MIC Range” value (A. terreus) was 2 to 4 µg/mL and the GM (A. versicolor) was 0.9 µg/mL. For the same compound, the MIC50 (A. versicolor) was 1 µg/mL (≈ 1.08 µM), the “MIC Range” value (A. versicolor) was 0.25 to 2 µg/mL and the GM (E. jeanselmei) was 4.67 µg/mL. For the same compound, the MIC50 (E. jeanselmei) was 4 µg/mL (≈ 4.33 µM), the “MIC Range” value (E. jeanselmei) was 2 to 8 µg/mL and the “MFC higher than corifungin” value (Coccidioides sp; 2 C isolates) was at least 4 fold. It also gave an MFC (Coccidioides sp; 3 of the C isolates) of at least 8 µg/mL, an MIC (Coccidioides sp; 3 of the C isolates) of 4 µg/mL (≈ 4.33 µM) and an MIC (Coccidioides sp; Coccidioides sp isolate 1) of 2 µg/mL (≈ 2.16 µM). For the same compound, the MFC (Coccidioides sp; Coccidioides sp isolate 1, >96% kill of the inoculum) was 8 µg/mL (≈ 8.66 µM), the MIC (Coccidioides sp; Coccidioides sp isolate 2) was 4 µg/mL (≈ 4.33 µM) and the MFC (Coccidioides sp; Coccidioides sp isolate 2, >96% kill of the inoculum) was 8 µg/mL (≈ 8.66 µM). For the same compound, the MIC (Coccidioides sp; Coccidioides sp isolate 3) was 1 µg/mL (≈ 1.08 µM), the MFC (Coccidioides sp; Coccidioides sp isolate 3, >96% kill of the inoculum) was over 8 µg/mL and the MIC (Coccidioides sp; Coccidioides sp isolate 4) was 4/4 mcg/mL. For the same compound, the MFC (Coccidioides sp; Coccidioides sp isolate 4, >96% kill of the inoculum) was 4/4 mcg/mL, the MIC (Coccidioides sp; Coccidioides sp isolate 5) was 4/4 mcg/mL and the MFC (Coccidioides sp; Coccidioides sp isolate 5, >96% kill of the inoculum) was 4/4 mcg/mL. The MIC (Blastomyces dermatitidis; [5]) was 2/2 mcg/mL, the MFC (Blastomyces dermatitidis; [5]) was 2/2 mcg/mL and the MIC (Blastomyces dermatitidis; [6]) was 1/1 mcg/mL. The MFC (Blastomyces dermatitidis; [6]) was 1/1 mcg/mL, the MFC (Histoplasma capsulatum) was 0.5 µg/mL (≈ 0.541 µM) and the MIC (Histoplasma capsulatum) was 0.5 µg/mL (≈ 0.541 µM). For the same compound, the survival (Naegleria fowleri) was “no improvement in survival over the control”, the Water solubility [1] was “insoluble in water” and the “increase in survival rate” value [2] was 80%. The patients with nephrotoxicity [3] was at most 80%, the “ALB (Albumin)” value [4, 7] was 3.2 and the “ALK (Alkaline Phosphatase)” value [4, 7] was 74. For the same compound, the “ALT (Alanine Aminotransferase)” value [4, 7] was 37, the “BUN (Blood Urea Nitrogen)” value [4, 7] was 15 and the “Creat (Creatinine)” value [4, 7] was 0.6. The “GLOB (Globulin)” value [4, 7] was 2.6, the “Na (Sodium)” value [4, 7] was 140 and the “ALB (Albumin)” value [4, 8] was 3.2. The “ALK (Alkaline Phosphatase)” value [4, 8] was 61, the “ALT (Alanine Aminotransferase)” value [4, 8] was 37 and the “BUN (Blood Urea Nitrogen)” value [4, 8] was 16. For the same compound, the “Creat (Creatinine)” value [4, 8] was 0.6, the “GLOB (Globulin)” value [4, 8] was 2.7 and the “Na (Sodium)” value [4, 8] was 140. The “TP (Total Protein)” value [4, 8] was 6.0, the “ALB (Albumin)” value [4, 9] was 3.4 and the “ALK (Alkaline Phosphatase)” value [4, 9] was 69. The “ALT (Alanine Aminotransferase)” value [4, 9] was 36, the “BUN (Blood Urea Nitrogen)” value [4, 9] was 17 and the “Creat (Creatinine)” value [4, 9] was 0.6. For the same compound, the “GLOB (Globulin)” value [4, 9] was 2.4, the “Na (Sodium)” value [4, 9] was 132 and the toxicity ([4]; rats, intravenously 1.5 mg/kg three times a week over 28 days) was “No toxicity was observed”.

— US9212201B2, “Antifungal and antiparasitic polyene macrolides” (priority 2010, dated 2015)
